Assay results published in article PMC8149661, “Small-molecule inhibition of Lats kinases may promote Yap-dependent proliferation in postmitotic mammalian tissues” (Nature Communications, 2021).

Assays:
Test in all cases: biochemical
DYRK1B = DYRK1B (Homo sapiens, UniProt Q9Y463); conditions: read-out: % inhibition
ROCK1 [1] = target: T1, ROCK1 (Homo sapiens, UniProt Q13464); design: functional kinase inhibition IC50 (Reaction Biology)
NDR1 = target: T2, NDR1 (Homo sapiens, UniProt Q15208); design: functional kinase inhibition IC50 (Reaction Biology)
T2 construct: gene STK38

PKA = target: T3, PKA (Homo sapiens, UniProt P17612); design: functional kinase inhibition IC50 (Reaction Biology)
T3 construct: gene PRKACA

PKCepsilon = target: T4, PKCepsilon (Homo sapiens, UniProt Q02156); design: functional kinase inhibition IC50 (Reaction Biology)
T4 construct: gene PRKCE

PRKCD = PRKCD (Homo sapiens, UniProt Q05655); conditions: read-out: % inhibition
DMPK = DMPK (Homo sapiens, UniProt Q09013); conditions: read-out: % inhibition
HIPK2 = HIPK2 (Homo sapiens, UniProt Q9H2X6); conditions: read-out: % inhibition
CLK4 = CLK4 (Homo sapiens, UniProt Q9HAZ1); conditions: read-out: % inhibition
TAOK1 = TAOK1 (Homo sapiens, UniProt Q7L7X3); conditions: read-out: % inhibition
CDC7 = CDC7 (Homo sapiens, UniProt O00311); conditions: read-out: % inhibition
LRRK2 = LRRK2 (Homo sapiens, UniProt Q5S007); conditions: read-out: % inhibition
CDC42BPA = CDC42BPA (Homo sapiens, UniProt Q5VT25); conditions: read-out: % inhibition
ROCK1 [2] = target: T1, ROCK1; conditions: read-out: % inhibition
GSK3B = GSK3B (Homo sapiens, UniProt P49841); conditions: read-out: % inhibition
PRKX = PRKX (Homo sapiens, UniProt P51817); conditions: read-out: % inhibition
CLK1 = CLK1 (Homo sapiens, UniProt P49759); conditions: read-out: % inhibition
PASK = PASK (Homo sapiens, UniProt Q96RG2); conditions: read-out: % inhibition
BMP2K = BMP2K (Homo sapiens, UniProt Q9NSY1); conditions: read-out: % inhibition
CDK8 = CDK8 (Homo sapiens, UniProt P49336); conditions: read-out: % inhibition
CDC42BPG = CDC42BPG (Homo sapiens, UniProt Q6DT37); conditions: read-out: % inhibition
ROCK2 = ROCK2 (Homo sapiens, UniProt O75116); conditions: read-out: % inhibition
CDK19 = CDK19 (Homo sapiens, UniProt Q9BWU1); conditions: read-out: % inhibition
TGFBR2 = TGFBR2 (Homo sapiens, UniProt P37173); conditions: read-out: % inhibition
DYRK1A = DYRK1A (Homo sapiens, UniProt Q13627); conditions: read-out: % inhibition
PRKCQ = PRKCQ (Homo sapiens, UniProt Q04759); conditions: read-out: % inhibition
PRKACB = PRKACB (Homo sapiens, UniProt P22694); conditions: read-out: % inhibition
HIPK3 = HIPK3 (Homo sapiens, UniProt Q9H422); conditions: read-out: % inhibition
MAP3K7 = MAP3K7 (Homo sapiens, UniProt O43318); conditions: read-out: % inhibition
DAPK3 = DAPK3 (Homo sapiens, UniProt O43293); conditions: read-out: % inhibition
PRKG2 = PRKG2 (Homo sapiens, UniProt Q13237); conditions: read-out: % inhibition
CLK2 = CLK2 (Homo sapiens, UniProt P49760); conditions: read-out: % inhibition
PKN1 = PKN1 (Homo sapiens, UniProt Q16512); conditions: read-out: % inhibition
PRKCH = PRKCH (Homo sapiens, UniProt P24723); conditions: read-out: % inhibition
HIPK1 = HIPK1 (Homo sapiens, UniProt Q86Z02); conditions: read-out: % inhibition
PKN2 = PKN2 (Homo sapiens, UniProt Q16513); conditions: read-out: % inhibition
PAK4 = PAK4 (Homo sapiens, UniProt O96013); conditions: read-out: % inhibition
MAP4K4 = MAP4K4 (Homo sapiens, UniProt O95819); conditions: read-out: % inhibition

T1 sequence (Q13464 whole entry): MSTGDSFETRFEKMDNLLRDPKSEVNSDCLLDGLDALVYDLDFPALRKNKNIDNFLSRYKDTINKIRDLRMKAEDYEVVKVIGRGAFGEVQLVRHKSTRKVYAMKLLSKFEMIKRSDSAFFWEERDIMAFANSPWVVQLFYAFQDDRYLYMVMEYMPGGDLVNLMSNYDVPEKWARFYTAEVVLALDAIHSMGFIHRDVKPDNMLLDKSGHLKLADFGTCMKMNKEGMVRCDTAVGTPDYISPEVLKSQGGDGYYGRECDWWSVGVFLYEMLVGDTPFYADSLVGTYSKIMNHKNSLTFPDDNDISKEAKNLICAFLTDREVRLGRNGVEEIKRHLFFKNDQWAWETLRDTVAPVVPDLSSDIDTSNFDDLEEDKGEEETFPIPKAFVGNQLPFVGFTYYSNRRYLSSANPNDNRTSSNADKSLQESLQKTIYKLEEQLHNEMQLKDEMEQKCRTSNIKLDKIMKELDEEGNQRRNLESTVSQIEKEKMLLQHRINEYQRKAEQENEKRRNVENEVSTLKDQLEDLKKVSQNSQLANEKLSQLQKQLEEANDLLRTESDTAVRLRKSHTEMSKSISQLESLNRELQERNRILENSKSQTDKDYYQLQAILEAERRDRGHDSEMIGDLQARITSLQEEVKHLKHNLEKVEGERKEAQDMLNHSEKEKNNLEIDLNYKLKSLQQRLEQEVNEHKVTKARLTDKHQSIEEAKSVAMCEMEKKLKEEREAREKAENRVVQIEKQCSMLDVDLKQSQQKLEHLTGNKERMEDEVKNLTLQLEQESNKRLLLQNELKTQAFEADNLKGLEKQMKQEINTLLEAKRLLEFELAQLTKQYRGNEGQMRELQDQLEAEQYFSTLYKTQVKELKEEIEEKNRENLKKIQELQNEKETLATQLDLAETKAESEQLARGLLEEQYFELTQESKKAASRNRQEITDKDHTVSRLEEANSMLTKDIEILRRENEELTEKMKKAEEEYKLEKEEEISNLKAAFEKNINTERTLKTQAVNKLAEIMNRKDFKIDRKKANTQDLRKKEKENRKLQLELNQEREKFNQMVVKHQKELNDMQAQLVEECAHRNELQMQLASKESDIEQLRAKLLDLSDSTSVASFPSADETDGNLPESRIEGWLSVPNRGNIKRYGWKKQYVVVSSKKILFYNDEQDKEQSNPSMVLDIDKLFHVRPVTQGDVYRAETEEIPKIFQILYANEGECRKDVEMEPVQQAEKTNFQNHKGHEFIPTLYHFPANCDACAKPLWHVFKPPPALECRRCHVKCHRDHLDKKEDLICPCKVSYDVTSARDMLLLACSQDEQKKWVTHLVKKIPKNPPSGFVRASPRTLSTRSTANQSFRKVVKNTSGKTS
Chain of CDK19 (Q9BWU1 whole entry): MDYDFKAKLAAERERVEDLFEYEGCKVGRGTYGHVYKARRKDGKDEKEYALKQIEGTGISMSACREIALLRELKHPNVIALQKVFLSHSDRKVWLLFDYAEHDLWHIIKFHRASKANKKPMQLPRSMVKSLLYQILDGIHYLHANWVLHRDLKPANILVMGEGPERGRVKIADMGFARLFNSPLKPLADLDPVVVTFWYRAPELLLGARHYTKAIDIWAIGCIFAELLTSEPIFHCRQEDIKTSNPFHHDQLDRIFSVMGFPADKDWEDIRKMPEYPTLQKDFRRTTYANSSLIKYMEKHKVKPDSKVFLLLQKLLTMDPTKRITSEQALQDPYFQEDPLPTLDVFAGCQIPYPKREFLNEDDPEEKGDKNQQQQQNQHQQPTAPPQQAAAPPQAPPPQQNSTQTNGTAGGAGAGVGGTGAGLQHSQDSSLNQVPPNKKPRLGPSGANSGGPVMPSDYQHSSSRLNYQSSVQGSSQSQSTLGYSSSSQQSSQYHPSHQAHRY
Chain of BMP2K (Q9NSY1 whole entry): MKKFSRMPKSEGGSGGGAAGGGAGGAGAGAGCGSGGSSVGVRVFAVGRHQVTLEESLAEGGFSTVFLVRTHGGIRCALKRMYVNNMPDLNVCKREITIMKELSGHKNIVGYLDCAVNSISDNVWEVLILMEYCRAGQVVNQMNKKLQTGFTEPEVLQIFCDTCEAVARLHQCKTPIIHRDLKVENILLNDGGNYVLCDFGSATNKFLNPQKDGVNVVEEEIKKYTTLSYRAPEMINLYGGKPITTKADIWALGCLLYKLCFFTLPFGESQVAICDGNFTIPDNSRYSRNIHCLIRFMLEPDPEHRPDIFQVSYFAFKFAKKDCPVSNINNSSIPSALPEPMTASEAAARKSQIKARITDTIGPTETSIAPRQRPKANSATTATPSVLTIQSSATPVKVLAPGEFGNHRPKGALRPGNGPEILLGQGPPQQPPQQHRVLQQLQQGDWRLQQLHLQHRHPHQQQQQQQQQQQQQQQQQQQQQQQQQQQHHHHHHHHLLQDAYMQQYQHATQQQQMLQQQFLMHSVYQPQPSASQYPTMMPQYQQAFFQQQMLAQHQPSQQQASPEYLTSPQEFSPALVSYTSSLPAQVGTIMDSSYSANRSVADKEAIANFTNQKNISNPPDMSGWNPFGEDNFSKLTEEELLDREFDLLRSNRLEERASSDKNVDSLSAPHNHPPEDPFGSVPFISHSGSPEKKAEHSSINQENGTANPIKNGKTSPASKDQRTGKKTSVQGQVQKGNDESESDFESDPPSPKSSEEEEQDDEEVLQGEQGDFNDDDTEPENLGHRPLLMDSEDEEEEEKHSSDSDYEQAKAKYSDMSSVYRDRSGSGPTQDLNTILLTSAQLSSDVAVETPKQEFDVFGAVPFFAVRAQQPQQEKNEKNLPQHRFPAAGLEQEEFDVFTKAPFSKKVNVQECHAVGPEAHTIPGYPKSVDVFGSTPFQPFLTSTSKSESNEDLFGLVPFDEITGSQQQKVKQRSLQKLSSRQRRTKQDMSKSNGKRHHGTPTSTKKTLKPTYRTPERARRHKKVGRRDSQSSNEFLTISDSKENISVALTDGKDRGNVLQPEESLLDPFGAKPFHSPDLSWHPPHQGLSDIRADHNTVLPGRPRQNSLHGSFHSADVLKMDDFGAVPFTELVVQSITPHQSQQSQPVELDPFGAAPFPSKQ
Chain of CLK2 (P49760 whole entry): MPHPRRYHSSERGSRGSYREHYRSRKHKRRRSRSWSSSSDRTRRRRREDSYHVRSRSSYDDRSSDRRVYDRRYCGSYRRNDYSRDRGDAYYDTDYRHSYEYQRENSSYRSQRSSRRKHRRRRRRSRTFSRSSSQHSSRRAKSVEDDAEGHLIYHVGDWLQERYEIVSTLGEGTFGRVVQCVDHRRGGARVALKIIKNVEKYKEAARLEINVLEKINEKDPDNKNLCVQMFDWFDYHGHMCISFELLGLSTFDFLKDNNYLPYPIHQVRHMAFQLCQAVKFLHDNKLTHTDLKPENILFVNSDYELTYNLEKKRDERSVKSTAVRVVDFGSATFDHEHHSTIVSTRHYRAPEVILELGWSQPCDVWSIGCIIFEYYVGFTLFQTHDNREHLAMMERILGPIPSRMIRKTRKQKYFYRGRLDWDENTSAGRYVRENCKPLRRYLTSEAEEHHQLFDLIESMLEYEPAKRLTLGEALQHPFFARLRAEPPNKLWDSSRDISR
Chain of ROCK2 (O75116 whole entry): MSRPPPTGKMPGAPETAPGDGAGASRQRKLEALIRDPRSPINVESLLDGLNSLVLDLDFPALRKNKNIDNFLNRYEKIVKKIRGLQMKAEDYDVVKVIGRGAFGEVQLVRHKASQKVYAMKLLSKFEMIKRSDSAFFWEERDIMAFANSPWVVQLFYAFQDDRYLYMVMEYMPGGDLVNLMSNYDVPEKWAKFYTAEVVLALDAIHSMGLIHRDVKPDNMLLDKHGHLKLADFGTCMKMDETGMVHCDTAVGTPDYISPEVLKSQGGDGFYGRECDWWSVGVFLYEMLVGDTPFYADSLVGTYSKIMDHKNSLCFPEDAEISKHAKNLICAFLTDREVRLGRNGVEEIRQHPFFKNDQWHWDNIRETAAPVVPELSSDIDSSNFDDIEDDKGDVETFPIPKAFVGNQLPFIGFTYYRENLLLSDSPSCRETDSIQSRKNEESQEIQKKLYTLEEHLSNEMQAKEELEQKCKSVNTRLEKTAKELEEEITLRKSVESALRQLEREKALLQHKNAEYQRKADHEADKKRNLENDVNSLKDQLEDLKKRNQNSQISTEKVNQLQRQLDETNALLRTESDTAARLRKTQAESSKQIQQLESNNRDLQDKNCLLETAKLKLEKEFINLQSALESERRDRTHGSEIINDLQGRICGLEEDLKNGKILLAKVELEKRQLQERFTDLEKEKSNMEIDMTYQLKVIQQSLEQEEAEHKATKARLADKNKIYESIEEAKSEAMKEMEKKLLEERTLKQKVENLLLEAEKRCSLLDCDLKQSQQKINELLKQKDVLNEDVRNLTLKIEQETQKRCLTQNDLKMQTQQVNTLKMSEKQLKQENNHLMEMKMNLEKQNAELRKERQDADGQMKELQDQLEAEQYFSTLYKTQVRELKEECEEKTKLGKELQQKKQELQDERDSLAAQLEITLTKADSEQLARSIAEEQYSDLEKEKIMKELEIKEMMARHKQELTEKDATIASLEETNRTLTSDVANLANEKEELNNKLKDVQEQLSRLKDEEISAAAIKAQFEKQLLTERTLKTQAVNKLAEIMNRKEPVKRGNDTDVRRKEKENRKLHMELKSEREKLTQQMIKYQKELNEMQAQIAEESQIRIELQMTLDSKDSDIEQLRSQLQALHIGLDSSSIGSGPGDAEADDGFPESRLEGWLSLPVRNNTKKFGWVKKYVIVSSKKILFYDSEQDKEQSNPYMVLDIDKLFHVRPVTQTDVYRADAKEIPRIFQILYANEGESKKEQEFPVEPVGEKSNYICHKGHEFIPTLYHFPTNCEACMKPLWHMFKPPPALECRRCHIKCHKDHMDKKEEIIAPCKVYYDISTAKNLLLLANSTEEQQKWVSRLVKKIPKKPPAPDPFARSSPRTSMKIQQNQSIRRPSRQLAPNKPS

**Q.** `O=C(N=c1sccn1Cc1ccccc1)c1c[nH]c2ncccc12` [TRULI, N-(3-benzylthiazol-2(3H)-ylidene)-1H-pyrrolo[2,3-b]pyridine-3-carboxamide] was tested. Which inhibition at 1 µM (DYRK1B) did it give?
**A.** 81.5%

**Q.** And the IC50 (ROCK1 [1])?
**A.** 88 nM

**Q.** And the IC50 (NDR1)?
**A.** 1000 nM

**Q.** And the IC50 (PKA)?
**A.** 60 nM

**Q.** And the IC50 (PKCepsilon)?
**A.** 14 nM

**Q.** And the inhibition at 1 µM (PRKCD)?
**A.** 78%

**Q.** What about the inhibition at 1 µM (DMPK) of the same compound?
**A.** 97.9%

**Q.** What about the inhibition at 1 µM (HIPK2) of the same compound?
**A.** 94.2%

**Q.** And the inhibition at 1 µM (CLK4)?
**A.** 102%

**Q.** And the inhibition at 1 µM (TAOK1)?
**A.** 76.4%

**Q.** And the inhibition at 1 µM (CDC7)?
**A.** 99.1%

**Q.** And the inhibition at 1 µM (LRRK2)?
**A.** 81.3%

**Q.** And the inhibition at 1 µM (CDC42BPA)?
**A.** 97.2%

**Q.** And the inhibition at 1 µM (ROCK1 [2])?
**A.** 79.2%

**Q.** And the inhibition at 1 µM (GSK3B)?
**A.** 92.7%

**Q.** And the inhibition at 1 µM (PRKX)?
**A.** 88.1%

**Q.** And the inhibition at 1 µM (CLK1)?
**A.** 78.1%

**Q.** And the inhibition at 1 µM (PASK)?
**A.** 85.8%

**Q.** And the inhibition at 1 µM (BMP2K)?
**A.** 86.3%

**Q.** And the inhibition at 1 µM (CDK8)?
**A.** 88.8%

**Q.** What about the inhibition at 1 µM (CDC42BPG) of the same compound?
**A.** 83.7%

**Q.** What about the inhibition at 1 µM (ROCK2) of the same compound?
**A.** 84.1%

**Q.** And the inhibition at 1 µM (CDK19)?
**A.** 90.2%

**Q.** And the inhibition at 1 µM (TGFBR2)?
**A.** 81.3%

**Q.** And the inhibition at 1 µM (DYRK1A)?
**A.** 85.8%

**Q.** What about the inhibition at 1 µM (PRKCQ) of the same compound?
**A.** 99.2%

**Q.** What about the inhibition at 1 µM (PRKACB) of the same compound?
**A.** 92.9%

**Q.** What about the inhibition at 1 µM (HIPK3) of the same compound?
**A.** 95.8%

**Q.** What about the inhibition at 1 µM (MAP3K7) of the same compound?
**A.** 74%

**Q.** What about the inhibition at 1 µM (DAPK3) of the same compound?
**A.** 77.1%

**Q.** What about the inhibition at 1 µM (PRKG2) of the same compound?
**A.** 79.1%

**Q.** What about the inhibition at 1 µM (CLK2) of the same compound?
**A.** 92.8%

**Q.** And the inhibition at 1 µM (PKN1)?
**A.** 77.7%

**Q.** And the inhibition at 1 µM (PRKCH)?
**A.** 90.4%

**Q.** What about the inhibition at 1 µM (HIPK1) of the same compound?
**A.** 86.1%

**Q.** What about the inhibition at 1 µM (PKN2) of the same compound?
**A.** 89.7%

**Q.** And the inhibition at 1 µM (PAK4)?
**A.** 83.4%

**Q.** What about the inhibition at 1 µM (MAP4K4) of the same compound?
**A.** 77.5%
